This is an account of results in paper PMC11637378, “Optogenetic screening of MCT1 activity implicates a cluster of non-steroidal anti-inflammatory drugs (NSAIDs) as inhibitors of lactate transport” (PLOS ONE, 2024).

Molecules are shown by their SMILES. Where “and” joins values, the source holds several entries; their conditions need not be identical. Equal values may be shown once. Where a name gives a salt, the structure may show the parent alone.

The data set has as its system parent strain (SAWy518).
`O=C(O)[C@]1(Cc2cccc(Nc3nccs3)n2)CC[C@@H](Oc2cccc(Cl)c2F)CC1` [MK-5108 (VX-689)]: the Offscreen_18hr amounted to 0.6785, the Offscreen_24hr amounted to 0.8599 and the Offscreen_42hr is reported as 0.9444.

On to `CC(C)(C)c1ccc(S(=O)(=O)/C=C/C#N)cc1` [Bay 11-7085], for which the Offscreen_18hr was 0.0422 and 0.0395; the Offscreen_24hr was 0.0424 and 0.04.

Take `CC(C)N(CCC(=O)c1ccc2ccccc2c1)Cc1ccccc1.Cl` [ZM 39923 HCl]: the Offscreen_18hr was 0.0402, the Offscreen_24hr stood at 0.0403 and the Offscreen_42hr is on record as 0.0401.

With `O=[N+]([O-])/C=C/c1ccc2c(c1)OCO2` [MNS], the Offscreen_18hr amounted to 0.2427, the Offscreen_24hr worked out at 0.4675 and the Offscreen_42hr stood at 0.9062.

With `CN(C/C=C/C#CC(C)(C)C)Cc1cccc2ccccc12` [Terbinafine hydrochloride], the Offscreen_18hr is listed as 0.3316, the Offscreen_24hr is recorded as 0.5468 and the Offscreen_42hr stood at 0.9146.

Consider `[H]/N=C(\N/C(=N/[H])NCCCCCCNC(=N)NC(=N)Nc1ccc(Cl)cc1)Nc1ccc(Cl)cc1` [Chlorhexidine hydrochloride], for which the Offscreen_18hr is on record as 0.5517, the Offscreen_24hr stood at 0.7908 and the Offscreen_42hr is reported as 0.9568.

For the molecule `CCCCCCC(=O)OC1CC(C)(C)NC(C)(C)C1.Cl` [TMPH hydrochloride, reference compound], the Offtarget entry is “NO” and the Offtarget_sub worked out at 0.4142.

On to `Oc1cc(Cl)ccc1Oc1ccc(Cl)cc1Cl` [Triclosan], for which the Offscreen_18hr is given as 0.1779, the Offscreen_24hr is 0.3017 and the Offscreen_42hr came to 0.8343.

Take `CCN(CC)C(=O)[C@]1(c2ccccc2)C[C@@H]1CN.Cl` [Milnacipran hydrochloride]: the Offscreen_18hr is given as 0.8463, the Offscreen_24hr came out at 0.9181 and the Offscreen_42hr was 0.9801.

For `O=C(O)Cc1cc(I)c(Oc2ccc(O)c(I)c2)c(I)c1` [TIRATRICOL], the Offscreen_18hr amounted to 0.6885, the Offscreen_24hr is 0.8174 and the Offscreen_42hr was 0.855.

`Br.Br.N=C(N)SCCN` [AMINOETHYLISOTHIOUREA DIHYDROBROMIDE]: the Offscreen_18hr was found to be 0.0502, the Offscreen_24hr is 0.0525 and the Offscreen_42hr amounted to 0.1802.

`CS(=O)(=O)c1ccc(C2=C(c3ccccc3)C(=O)OC2)cc1` [Rofecoxib, reference compound]: the OffScreen_percentage amounted to 103.916 percentage, the Offscreen_18hr is 0.8386, the Offscreen_24hr turned out to be 0.9205 and the Offscreen_42hr turned out to be 0.975. In addition, the Read_percentage was determined as 103.916.

With `O=C(/C=C/c1ccccc1)c1ccc(O)cc1` [4'-HYDROXYCHALCONE], the Offscreen_18hr is given as 0.7341, the Offscreen_24hr stood at 0.8731 and the Offscreen_42hr is recorded as 0.9266.

For the molecule `C[n+]1c2cc(N)ccc2cc2ccc(N)cc21.[Cl-]` [ACRIFLAVINIUM HYDROCHLORIDE], the Offscreen_18hr is listed as 0.6168, the Offscreen_24hr was 0.8008 and the Offscreen_42hr is given as 0.904.

As for `CO[C@H]1C[C@@H]2CC[C@@H](C)[C@@](O)(O2)C(=O)C(=O)N2CCCC[C@H]2C(=O)O[C@H]([C@H](C)C[C@@H]2CC[C@@H](O)[C@H](OC)C2)CC(=O)[C@H](C)/C=C(\C)[C@@H](O)[C@@H](OC)C(=O)[C@H](C)C[C@H](C)/C=C/C=C/C=C/1C` [Rapamycin], the Offscreen_18hr is 0.0498, the Offscreen_24hr turned out to be 0.0505 and the Offscreen_42hr is reported as 0.0758.

Turning to `COc1ccc2c(c1)CC[C@@H]1[C@@H]2CC[C@]2(C)[C@H](NCCCCCCN3C(=O)C=CC3=O)CC[C@@H]12` [U 73122], the Offscreen_18hr is 0.5917, the Offscreen_24hr is listed as 0.8296 and the Offscreen_42hr is 0.9704.
